These results are taken from ChEMBL document CHEMBL1153977, “Fluorinated non-imidazole histamine H3 receptor antagonists” (Bioorg Med Chem Lett, 2009).

In one assay the target is Histamine H3 receptor (Homo sapiens, UniProt Q9Y5N1). Kind of assay: Displacement of [125I]iodoproxyfan from human histamine H3 receptor expressed in […] cells. In kind it is cell-based, HEK293. (Loss of bound radioactivity is the signal in a displacement assay; it reports binding, not function.)
The next assay concerns Mus musculus. Kind of assay: In vivo histamine H3 receptor potency in po dosed Swiss mouse assessed as N'-methylhistamine level. Type of assay: functional.

Molecules are shown by their SMILES. Bounds are passed on as bounds.

Chain of Histamine H3 receptor (Q9Y5N1 whole entry): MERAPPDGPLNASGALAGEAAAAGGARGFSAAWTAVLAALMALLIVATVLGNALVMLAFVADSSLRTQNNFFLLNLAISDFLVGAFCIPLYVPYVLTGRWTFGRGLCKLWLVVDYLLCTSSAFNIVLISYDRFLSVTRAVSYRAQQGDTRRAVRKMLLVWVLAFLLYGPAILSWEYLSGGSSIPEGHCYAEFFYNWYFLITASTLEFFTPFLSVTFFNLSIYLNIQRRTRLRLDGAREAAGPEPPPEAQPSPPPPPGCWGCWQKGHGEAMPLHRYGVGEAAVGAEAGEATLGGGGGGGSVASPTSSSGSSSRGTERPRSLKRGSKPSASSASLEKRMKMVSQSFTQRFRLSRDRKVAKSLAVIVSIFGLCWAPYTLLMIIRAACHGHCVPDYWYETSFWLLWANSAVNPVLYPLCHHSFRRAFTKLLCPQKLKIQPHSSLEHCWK

By Ki is commonly meant a measure of affinity in units of concentration, obtained from inhibition or displacement. A higher Ki goes with lower affinity. For `ClC1CCN(Cc2ccc(OCCCN3CCCCC3)cc2)CC1`, at Histamine H3 receptor, the affinity, expressed as Ki, was 0.068 nM.
In general, ED50 refers to the dose that gives a 50% effect, or the effect in half of the subjects. `N#Cc1ccc(OCCCN2CCCCC2)cc1`: the 50% effective dose (ED50) with Mus musculus was determined as 0.2 mg/kg. On Histamine H3 receptor, this molecule gave a Ki of 11 nM.
As for `N#Cc1ccc(OCCCN2CCC(F)(F)CC2)cc1`, the Ki at Histamine H3 receptor is > 1000 nM.
Regarding `F[C@H]1CCN(Cc2ccc(OCCCN3CCCCC3)cc2)C1`, the ED50 with Mus musculus was 3.9 mg/kg. The affinity at Histamine H3 receptor corresponds to a Ki of 0.28 nM.
Take `BrC1CCN(Cc2ccc(OCCCN3CCCCC3)cc2)CC1`: the affinity at Histamine H3 receptor corresponds to a Ki of 0.2 nM.
As for `Clc1ccc(CCCOCCCN2CCCCC2)cc1` [PITOLISANT], the median effective dose (ED50) in the assay with Mus musculus amounted to 1.5 mg/kg.
Take `FC1CCN(Cc2ccc(OCCCN3CCCC3)cc2)CC1`: the 50% effective dose (ED50) in the assay with Mus musculus came to 12 mg/kg. This molecule registered a Ki on Histamine H3 receptor of 0.26 nM.
Turning to `F[C@@H]1CCN(Cc2ccc(OCCCN3CCCC3)cc2)C1`, at Histamine H3 receptor, the Ki is 0.31 nM.
Take `FC1(F)CCN(Cc2ccc(OCCCN3CCCCC3)cc2)CC1`: in the assay on Mus musculus, the ED50 is 0.4 mg/kg. On Histamine H3 receptor, this molecule returned a Ki of 0.24 nM.
The molecule `CS(=O)(=O)OC1CCN(Cc2ccc(OCCCN3CCCCC3)cc2)CC1` displayed an inhibitory constant (Ki) on Histamine H3 receptor of 0.84 nM.
With `FC1CCN(Cc2ccc(OCCCN3CCCCC3)cc2)CC1`, the ED50 in the assay with Mus musculus turned out to be 7.4 mg/kg. In addition, affinity on Histamine H3 receptor was put at a Ki of 0.094 nM.
With `F[C@@H]1CCN(Cc2ccc(OCCCN3CCCCC3)cc2)C1`, the inhibition constant Ki at Histamine H3 receptor worked out at 0.28 nM.
For `c1cc(CN2CCCCC2)ccc1COc1ccc(CN2CCCCC2)cc1`, in the assay on Mus musculus, the ED50 was determined as 9.6 mg/kg.
The molecule `FCc1ccc(OCCCN2CCCCC2)cc1` gave a Ki at Histamine H3 receptor of 17.3 nM.
Same read-out and setting: next, `FCCc1ccc(OCCCN2CCCCC2)cc1`: 43 nM.
Still for that read-out and setting: next, `FC1CCN(CCCOc2ccc(CN3CCCC3)cc2)CC1`: 0.99 nM.
Regarding `c1cc(OCCCN2CCCCC2)ccc1CN1CCCCC1` [JNJ-5207852], the ED50 in the assay with Mus musculus worked out at 0.12 mg/kg.
